{
  "source": "patent US6914045B2",
  "about": "“Glycopeptide antibiotics” (Wyeth Holdings Corporation, priority 2001, dated 2005)",
  "test_in_all_cases": "in vitro antibacterial evaluation, MIC by broth dilution",
  "type_in_all_cases": "cell-based",
  "key": {"[1]": {"system": "Staphylococcus sp.", "settings": "broth dilution, 18 hours at 35° C.", "outline": "(§1)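 Broth dilution per NCCLS M7-A2 in Mueller-Hinton II medium, inoculum 5×10^5 CFU/mL, antibiotic range 64-0.06 μg/mL. MIC taken as lowest concentration inhibiting growth; Gram-positive panel includes recent clinical isolates resistant to methicillin, penicillin and/or vancomycin.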"}, "[2]": {"system": "Escherichia coli", "settings": "18 hours at 35° C., strain ATCC 25922", "outline": "as §1"}, "[3]": {"system": "Streptococcus sp.", "settings": "broth dilution, 18 hours at 35° C.", "outline": "as §1"}, "[4]": {"system": "Enterococcus sp.", "settings": "broth dilution, 18 hours at 35° C.", "outline": "as §1"}},
  "data": [
    {"smiles": "CCCCCCCC1OCC2OC(OC3C(CO)OC(Oc4ccc(CC5NC(=O)C(C(C)c6ccccc6)NC(=O)CNC(=O)C(CO)NC(=O)C(C(O)C6CNC(=N)N6C6OC(CO)C(O)C(O)C6O)NC(=O)C(C(O)C6CNC(=N)N6)NC5=O)cc4)C(O)C3O)C(O)C(O)C2O1", "note": "(stereo not drawn) [Example 109, Cyclo[glycyl-β-methylphenylalanyl-O-[4-O-(4,6-O-octylidenehexopyranosyl)hexopyranosyl]-tyrosyl-3-(2-iminoimidazolidin-4-yl)seryl-3-(3-hexopyranosyl-2-iminoimidazolidin-4-yl)-serylseryl]]", "values": [
      {"measurement": "MIC Coagulase Negative Staphylococcus (GC 4547)", "setting": "[1]", "value": 1, "unit": "mg/L"},
      {"measurement": "MIC Coagulase Negative Staphylococcus (GC 4548)", "setting": "[1]", "value": "<0.5", "unit": "mg/L"},
      {"measurement": "MIC Coagulase Negative Staphylococcus (GC 4549)", "setting": "[1]", "value": 1, "unit": "mg/L"},
      {"measurement": "MIC Coagulase Negative Staphylococcus (GC 4551)", "setting": "[1]", "value": 1, "unit": "mg/L"},
      {"measurement": "MIC Coagulase Negative Staphylococcus (ID-3941)", "setting": "[1]", "value": 1, "unit": "mg/L"},
      {"measurement": "MIC Staphylococcus aureus (ATCC 29213)", "setting": "[1]", "value": 1, "unit": "mg/L"},
      {"measurement": "MIC Staphylococcus aureus (GC 1131)", "setting": "[1]", "value": 1, "unit": "mg/L"},
      {"measurement": "MIC Staphylococcus aureus (GC 4541)", "setting": "[1]", "value": 1, "unit": "mg/L"},
      {"measurement": "MIC Staphylococcus aureus (GC 4542)", "setting": "[1]", "value": 1, "unit": "mg/L"},
      {"measurement": "MIC Staphylococcus aureus (GC 4544)", "setting": "[1]", "value": 1, "unit": "mg/L"},
      {"measurement": "MIC Staphylococcus aureus (GC 4545)", "setting": "[1]", "value": 1, "unit": "mg/L"},
      {"measurement": "MIC Staphylococcus aureus-SMITH (GC 4543)", "setting": "[1]", "value": 1, "unit": "mg/L"},
      {"measurement": "MIC Staphylococcus haemolyticus (GC 4546)", "setting": "[1]", "value": 1, "unit": "mg/L"},
      {"measurement": "MIC Staphylococcus aureus (GC 1131)", "setting": "[1]; inoculum 5×10^5 CFU/mL, strain GC 1131", "value": 1, "unit": "mg/L"},
      {"measurement": "MIC Staphylococcus aureus (ATCC 29213)", "setting": "[1]; strain ATCC 29213", "value": 1, "unit": "mg/L"},
      {"measurement": "MIC Staphylococcus aureus (GC 4541)", "setting": "[1]; strain GC 4541", "value": 1, "unit": "mg/L"},
      {"measurement": "MIC Staphylococcus aureus (GC 4542)", "setting": "[1]; strain GC 4542", "value": 1, "unit": "mg/L"},
      {"measurement": "MIC Staphylococcus aureus (GC 4544)", "setting": "[1]; strain GC 4544", "value": 1, "unit": "mg/L"},
      {"measurement": "MIC Staphylococcus aureus (GC 4545)", "setting": "[1]; strain GC 4545", "value": 1, "unit": "mg/L"},
      {"measurement": "MIC Staphylococcus haemolyticus (GC 4546)", "setting": "[1]; strain GC 4546", "value": 1, "unit": "mg/L"},
      {"measurement": "MIC Coagulase Negative Staphylococcus (GC 4547)", "setting": "[1]; strain GC 4547", "value": 1, "unit": "mg/L"},
      {"measurement": "MIC Coagulase Negative Staphylococcus (GC 4548)", "setting": "[1]; strain GC 4548", "value": "<0.5", "unit": "mg/L"},
      {"measurement": "MIC Coagulase Negative Staphylococcus (GC 4549)", "setting": "[1]; strain GC 4549", "value": 1, "unit": "mg/L"},
      {"measurement": "MIC Coagulase Negative Staphylococcus (GC 4551)", "setting": "[1]; strain GC 4551", "value": 1, "unit": "mg/L"},
      {"measurement": "MIC Coagulase Negative Staphylococcus (ID-3941)", "setting": "[1]; strain ID-3941", "value": 1, "unit": "mg/L"},
      {"measurement": "MIC Staphylococcus aureus-SMITH (GC 4543)", "setting": "[1]; strain SMITH GC 4543", "value": 1, "unit": "mg/L"},
      {"measurement": "MIC Escherichia coli (ATCC 25922)", "setting": "[2]", "value": 16, "unit": "mg/L"},
      {"measurement": "MIC Streptococcus agalactiae (GC 4564)", "setting": "[3]; Streptococcus agalactiae (GC 4564)", "value": "<0.5", "unit": "mg/L"},
      {"measurement": "MIC Streptococcus pneumoniae (GC 4565)", "setting": "[3]; Streptococcus pneumoniae (GC 4565)", "value": "<0.5", "unit": "mg/L"},
      {"measurement": "MIC Streptococcus pyogenes (ID-3187)", "setting": "[3]; Streptococcus pyogenes (ID-3187)", "value": "<0.5", "unit": "mg/L"},
      {"measurement": "MIC Streptococcus agalactiae (GC 4564)", "setting": "[3]; strain GC 4564", "value": "<0.5", "unit": "mg/L"},
      {"measurement": "MIC Streptococcus pneumoniae (GC 4565)", "setting": "[3]; strain GC 4565", "value": "<0.5", "unit": "mg/L"},
      {"measurement": "MIC Streptococcus pyogenes (ID-3187)", "setting": "[3]; strain ID-3187", "value": "<0.5", "unit": "mg/L"},
      {"measurement": "MIC Enterococcus avium (GC 4558)", "setting": "[4]; Enterococcus avium (GC 4558)", "value": 2, "unit": "mg/L"},
      {"measurement": "MIC Enterococcus faecalis (ATCC 29212)", "setting": "[4]; Enterococcus faecalis (ATCC 29212)", "value": 2, "unit": "mg/L"},
      {"measurement": "MIC Enterococcus faecalis (GC 2242)", "setting": "[4]; Enterococcus faecalis (GC 2242)", "value": 2, "unit": "mg/L"},
      {"measurement": "MIC Enterococcus faecalis (GC 4552)", "setting": "[4]; Enterococcus faecalis (GC 4552)", "value": 2, "unit": "mg/L"},
      {"measurement": "MIC Enterococcus faecalis (GC 4553)", "setting": "[4]; Enterococcus faecalis (GC 4553)", "value": 2, "unit": "mg/L"},
      {"measurement": "MIC Enterococcus faecalis (GC 4554)", "setting": "[4]; Enterococcus faecalis (GC 4554)", "value": 2, "unit": "mg/L"},
      {"measurement": "MIC Enterococcus faecium (GC 2243)", "setting": "[4]; Enterococcus faecium (GC 2243)", "value": 1, "unit": "mg/L"},
      {"measurement": "MIC Enterococcus faecium (GC 4556)", "setting": "[4]; Enterococcus faecium (GC 4556)", "value": 2, "unit": "mg/L"},
      {"measurement": "MIC Enterococcus faecium (GC 4557)", "setting": "[4]; Enterococcus faecium (GC 4557)", "value": 1, "unit": "mg/L"},
      {"measurement": "MIC Enterococcus faecalis (ATCC 29212)", "setting": "[4]; strain ATCC 29212", "value": 2, "unit": "mg/L"},
      {"measurement": "MIC Enterococcus faecalis (GC 2242)", "setting": "[4]; strain GC 2242", "value": 2, "unit": "mg/L"},
      {"measurement": "MIC Enterococcus faecium (GC 2243)", "setting": "[4]; strain GC 2243", "value": 1, "unit": "mg/L"},
      {"measurement": "MIC Enterococcus faecalis (GC 4552)", "setting": "[4]; strain GC 4552", "value": 2, "unit": "mg/L"},
      {"measurement": "MIC Enterococcus faecalis (GC 4553)", "setting": "[4]; strain GC 4553", "value": 2, "unit": "mg/L"},
      {"measurement": "MIC Enterococcus faecalis (GC 4554)", "setting": "[4]; strain GC 4554", "value": 2, "unit": "mg/L"},
      {"measurement": "MIC Enterococcus faecium (GC 4556)", "setting": "[4]; strain GC 4556", "value": 2, "unit": "mg/L"},
      {"measurement": "MIC Enterococcus faecium (GC 4557)", "setting": "[4]; strain GC 4557", "value": 1, "unit": "mg/L"},
      {"measurement": "MIC Enterococcus avium (GC 4558)", "setting": "[4]; strain GC 4558", "value": 2, "unit": "mg/L"}
    ]}
  ]
}
